Key:
TNF-α = test: Anti-inflammatory effect, TNF-α ELISA in LPS stimulated RAW 264.7 cells; assay type: cell-based, mouse; conditions: for Cytokine Concentration TNF-α: LPS, 24 h
Description: (§1) Therapeutic effect. […] PTNP concentrations were compared to free dexamethasone in media, which simulates systemic delivery. The experimental design included the expected concentrations of dexamethasone released from PTNP groups.

IL-1β = test: Anti-inflammatory effect, IL-1β ELISA in LPS stimulated RAW 264.7 cells; assay type: cell-based, mouse; conditions: for Cytokine Concentration IL-1β: LPS, 24 h
Description: as §1

SMILES: C[C@@H]1C[C@H]2[C@@H]3CCC4=CC(=O)C=C[C@]4(C)[C@@]3(F)[C@@H](O)C[C@]2(C)[C@@]1(O)C(=O)CO [Free DEX, dexamethasone]
- concentration required to maintain TNF-α control concentration levels in the presence of stimuli (TNF-α; ELISA): 0.23 mg/mL
- Cytokine Concentration TNF-α (TNF-α; Free DEX 0.10 mg/mL): 78 ± 3 pg/mL
- Cytokine Concentration TNF-α (TNF-α; Free DEX 0.50 mg/mL): 66 ± 3 pg/mL
- Cytokine Concentration TNF-α (TNF-α; Free DEX 1.00 mg/mL): 50 ± 3 pg/mL
- Cytokine Concentration TNF-α (TNF-α; Free DEX 2.00 mg/mL): 35 ± 6 pg/mL
- TNF-α versus control (TNF-α; free dexamethasone 0.10-0.50 mg/mL): lowered TNF-α but not enough to be comparable to the control
- TNF-α concentrations versus control (TNF-α; free dexamethasone in media 1 and 2 mg/mL): lowered TNF-α concentrations to control levels
- concentration required to maintain IL-1β control concentration levels in the presence of stimuli (IL-1β; ELISA): 0.23 mg/mL
- Cytokine Concentration IL-1β (IL-1β; Free DEX 0.10 mg/mL): 1009 ± 7 pg/mL
- Cytokine Concentration IL-1β (IL-1β; Free DEX 0.50 mg/mL): 759 ± 7 pg/mL
- Cytokine Concentration IL-1β (IL-1β; Free DEX 1.00 mg/mL): 491 ± 2 pg/mL
- Cytokine Concentration IL-1β (IL-1β; Free DEX 2.00 mg/mL): 489 ± 4 pg/mL

From patent publication US10501575B2, “Biomimetic fluoroscopic films” (THE BOARD OF REGENTS OF THE UNIVERSITY OF TEXAS SYSTEM, priority 2015, dated 2019)
